Data reported in US7781473B2, “Heterocycle derivatives useful as selective androgen receptor modulators (SARMS)” (J & J Pharmaceutical Research & Development, LLC., priority 2004, dated 2010).

Tested on: castrated male Sprague Dawley rats
Assay: Ventral Prostate and Levator ani Weight in vivo Assay (agonist, stimulation of tissue weight)
Design: species or system rat; key: A compound was designated as agonist active if it produced greater than or equal to 20% stimulation of levator ani at 30 mg/kg; they are listed herein as “inactive” as they did not meet the specified criteria defined above; A designation of “toxic” indicates that the compound exhibited toxicity in the rats tested
Settings: mature castrated rats, test compound oral gavage up to 30 mg/kg once daily for 14 days, vehicle = 0%, testosterone propionate = 100%; for % levator ani Stimulation: levator ani wet weight; for % Prostate Stimulation: ventral prostate wet weight
Method: Ventral Prostate and Levator ani Weight in vivo Assay
Mature (150 to 200 g) castrated male Sprague Dawley rats (Charles River) were treated once daily for 14 days with test compound (usually administered by oral gavage at up to the desired dosage, up to 30 mg/kg in a volume of 1 mL, in 30% cyclodextrin or 0.5% methylcellulose vehicle), or with testosterone propionate (administered subcutaneously by injection at the nape of the neck at 5 mg/kg, in a volume of 0.1 mL in sesame oil), or with vehicle (1 mL of 30% cyclodextrin or 0.5% methylcellulose, given orally). On the fifteenth day, the rats were euthanized by asphyxiation in carbon dioxide. Ventral prostates and levator ani muscles were removed and their wet weights determined.
Test compound activity was determined as the percent stimulation of tissue weight, with the vehicle-treated control group set to zero percent and the testosterone alone-treated control group set to 100%. A compound was designated as agonist active if it produced greater than or equal to 20% stimulation of levator ani at 30 mg/kg.
Representative compounds of the present invention were tested according to the procedure described, with results as listed in Table 10 below.

SMILES	% levator ani Stimulation	% Prostate Stimulation
CC1(C(=O)NCc2ccc(S(C)(=O)=O)cc2)CC(C(F)(F)F)=NN1 (stereo not drawn) [Compound 27, 3-Methyl-5-trifluoromethyl-3,4-dihydro-2H-pyrazole-3-carboxylic acid 4-methanesulfonyl-benzylamide]	inactive	inactive
CC1(C(=O)Nc2ccc(C#N)c(C(F)(F)F)c2)CC(C(F)(F)C(F)(F)F)=NN1 (stereo not drawn) [Compound 98, 3-Methyl-5-pentafluoroethyl-3,4-dihydro-2H-pyrazole-3-carboxylic acid (4-cyano-3-trifluoromethyl-phenyl)-amide]	active	active
CC1CC(C(=O)Nc2ccc(C#N)c(C(F)(F)F)c2)(C(F)(F)F)N=N1 (stereo not drawn) [Compound 114, 5-Methyl-3-trifluoromethyl-4,5-dihydro-3H-pyrazole-3-carboxylic acid (4-cyano-3-trifluoromethyl-phenyl)-amide]	inactive	inactive
CC1(C(=O)N(C(=O)C(F)(F)F)c2ccc(C#N)c(C(F)(F)F)c2)CC(C(F)(F)F)=NN1 (stereo not drawn) [Compound 115, 3-Methyl-5-trifluoromethyl-3,4-dihydro-2H-pyrazole-3-carboxylic acid (4-cyano-3-trifluoromethyl-phenyl)-(2,2,2-trifluoro-acetyl)-amide]	inactive	inactive
CC1(C(=O)Nc2ccc(C#N)c(C(F)(F)F)c2)CC(C2CCCC2)=NN1 (stereo not drawn) [compound 78]	inactive	inactive
CSCCC1=NNC(C)(C(=O)Nc2ccc(C#N)c(C(F)(F)F)c2)C1 (stereo not drawn) [compound 79]	inactive	inactive
